# Patent EP0500802B1, “LIPOSOMAL COMPOSITIONS” (priority 1989, dated 1991)
# Assay: Ocular biodistribution of 14C-labelled cromolyn free drug after topical ocular instillation (liquid scintillation counting of tissues)
# Format: in vivo, New Zealand white rabbits
# Settings: for TISSUE CONCENTRATION WEIGHTED MEAN: Examples 1-3
# Procedure: A. Preparation of test article. The sodium cromoglycate free drug test article used in the ocular biodistribution studies (Examples 1, 2 and 3) was prepared according to the following formula: […]
# B. The [propane-2-¹⁴C]cromolyn sodium used in the biodistribution studies was prepared as follows: 1,3-dichloro[2-¹⁴C]propan-2-ol was reacted with 2,6-dihydroxyacetophenone to give 1,3-bis (2-acetyl-3-hydroxy phenoxy)-2-hydroxy[2-¹⁴C]propane. This was treated with base and diethyl oxalate followed by acid catalysed cyclisation to give diethyl [propane-2-¹⁴C]cromolyn. Hydrolysis with sodium hydroxide gave the final product which was purified by crystallisation from water acetone. C. Specification and Handling of Experimental Animals and Tissues. • 1. Description of Experimental Animals: Female, New Zealand white rabbits (Hare Marland) weighing 2-3 kg were used in these studies. Upon receipt each animal was assigned an identification number and examined for gross signs of general health. The animals were individually housed in standard rabbit cages and given access to food and water ad libitum. Animals were received approximately one week before initiation of the study. Prior to the study the animals were randomly assigned to treatment groups using either a random number table or generator. Immediately before treatment the ocular tissues were examined for signs of irritation. If irritation was observed, either another animal was substituted or the condition noted. Food was removed at the time of treatment Water was available ad libitum throughout. • 2. Topical Ocular Instillation of Test Article: Animals were treated unilaterally by topical ocular instillation using a positive displacement pipet. The eyelids were gently retracted and the dose applied onto the cornea taking care to avoid touching the tissue with the pipet tip. The animal was positioned such that the dose flowed into the lower cul-de-sac. After treatment the animals were returned to their cages. • 3. Collection of Plasma Sample: Immediately prior to euthanasia, animals were placed in a standard rabbit restrainer. A small amount of xylene was applied to an eartip to enhance blood flow. The lateral ear vein was lanced and approximately 500 ul of blood collected in a Microtainer Brand Tube with EDTA (Becton Dickinson). The tubes were mixed by inversion and centrifuged in a microfuge for 10 minutes. A 200 ul aliquot of plasma was transferred to a scintillation vial for further processing of the sample. • 4. Euthanasia: Animals were euthanized by intravenous injection of a lethal dose of T61 Euthanasia Fluid (Hoechst-Roussel) into a lateral ear vein. Death was verified by absence of respiration, heart beat, and ocular reflexes. • 5. Dissection of Ocular Tissues. • a. Removal of Aqueous Humor: Aqueous humor was removed using a 1 ml disposable, plastic syringe equipped with a 5/8"-27g needle. The needle was inserted into the anterior chamber at the limbus. The fluid was gently withdrawn and transferred to a preweighed scintillation vial. • b. Removal of Globe, Conjunctiva, and Nictitating Membrane: The eyelids were retracted using 6" curbed hemostats. Incisions were made at the corners of the eye to facilitate dissection of the conjunctiva. The palpebral conjunctiva and nictitating membrane were dissected free of the eyelids, muscle, and connective tissue using Wilmer-Converse conjunctiva scissors. The conjunctiva and nictitating membrane were grasped with straight Kirby tissue forceps to form a sack around the globe. The sack and its contents were removed from the socket as a unit using heavy curved nucleation scissors. Excess blood was removed from the outside of the sac by gentle blotting with gauze pads. • c. Dissection of Conjunctiva, and Nictitating Membrane: The nictitating membrane was grasped with straight Kirby tissue forceps. The conjunctiva was cut with heavy curved eye scissors along one edge of the nictitating membrane. […]
compound,measurement,setting,value
"O=C(O)c1cc(=O)c2c(OCC(O)COc3cccc4oc(C(=O)O)cc(=O)c34)cccc2o1 [CROMOLYN FREE DRUG, 5,5' -[(2-Hydroxy-1,3-propanediyl)bis-(oxy)]bis[4-oxo-4H-1-benzopyran-2-carboxylic acid]]",TISSUE CONCENTRATION MEAN,"AQUEOUS HUMOR, Rx eye, 2 HR, EXAMPLE 1",70 ng Cromolyn/g or ml Tissue
same,TISSUE CONCENTRATION MEAN,"AQUEOUS HUMOR, Rx eye, 2 HR, EXAMPLE 2",36 ng Cromolyn/g or ml Tissue
same,TISSUE CONCENTRATION MEAN,"AQUEOUS HUMOR, Rx eye, 2 HR, EXAMPLE 3",129 ng Cromolyn/g or ml Tissue
same,TISSUE CONCENTRATION WEIGHTED MEAN,"AQUEOUS HUMOR, Rx eye, 2 HR",39 ng Cromolyn/g or ml Tissue
same,TISSUE CONCENTRATION MEAN,"AQUEOUS HUMOR, Rx eye, 4 HR, EXAMPLE 1",37 ng Cromolyn/g or ml Tissue
same,TISSUE CONCENTRATION MEAN,"AQUEOUS HUMOR, Rx eye, 4 HR, EXAMPLE 2",29 ng Cromolyn/g or ml Tissue
same,TISSUE CONCENTRATION MEAN,"AQUEOUS HUMOR, Rx eye, 4 HR, EXAMPLE 3",68 ng Cromolyn/g or ml Tissue
same,TISSUE CONCENTRATION WEIGHTED MEAN,"AQUEOUS HUMOR, Rx eye, 4 HR",35 ng Cromolyn/g or ml Tissue
same,TISSUE CONCENTRATION MEAN,"AQUEOUS HUMOR, Rx eye, 8 HR, EXAMPLE 1",16 ng Cromolyn/g or ml Tissue
same,TISSUE CONCENTRATION MEAN,"AQUEOUS HUMOR, Rx eye, 8 HR, EXAMPLE 2",13 ng Cromolyn/g or ml Tissue
same,TISSUE CONCENTRATION MEAN,"AQUEOUS HUMOR, Rx eye, 8 HR, EXAMPLE 3",10 ng Cromolyn/g or ml Tissue
same,TISSUE CONCENTRATION WEIGHTED MEAN,"AQUEOUS HUMOR, Rx eye, 8 HR",13 ng Cromolyn/g or ml Tissue
same,TISSUE CONCENTRATION MEAN,"CONJUNCTIVA, Rx eye, 2 HR, EXAMPLE 1",3501 ng Cromolyn/g or ml Tissue
same,TISSUE CONCENTRATION MEAN,"CONJUNCTIVA, Rx eye, 2 HR, EXAMPLE 2",3316 ng Cromolyn/g or ml Tissue
same,TISSUE CONCENTRATION MEAN,"CONJUNCTIVA, Rx eye, 2 HR, EXAMPLE 3",2332 ng Cromolyn/g or ml Tissue
same,TISSUE CONCENTRATION WEIGHTED MEAN,"CONJUNCTIVA, Rx eye, 2 HR",2887 ng Cromolyn/g or ml Tissue
same,TISSUE CONCENTRATION MEAN,"CONJUNCTIVA, Rx eye, 4 HR, EXAMPLE 1",742 ng Cromolyn/g or ml Tissue
same,TISSUE CONCENTRATION MEAN,"CONJUNCTIVA, Rx eye, 4 HR, EXAMPLE 2",683 ng Cromolyn/g or ml Tissue
same,TISSUE CONCENTRATION MEAN,"CONJUNCTIVA, Rx eye, 4 HR, EXAMPLE 3",772 ng Cromolyn/g or ml Tissue
same,TISSUE CONCENTRATION WEIGHTED MEAN,"CONJUNCTIVA, Rx eye, 4 HR",716 ng Cromolyn/g or ml Tissue
same,TISSUE CONCENTRATION MEAN,"CONJUNCTIVA, Rx eye, 8 HR, EXAMPLE 1",687 ng Cromolyn/g or ml Tissue
same,TISSUE CONCENTRATION MEAN,"CONJUNCTIVA, Rx eye, 8 HR, EXAMPLE 2",578 ng Cromolyn/g or ml Tissue
same,TISSUE CONCENTRATION MEAN,"CONJUNCTIVA, Rx eye, 8 HR, EXAMPLE 3",614 ng Cromolyn/g or ml Tissue
same,TISSUE CONCENTRATION WEIGHTED MEAN,"CONJUNCTIVA, Rx eye, 8 HR",607 ng Cromolyn/g or ml Tissue
same,TISSUE CONCENTRATION MEAN,"CORNES, Rx eye, 2 HR, EXAMPLE 1",1005 ng Cromolyn/g or ml Tissue
same,TISSUE CONCENTRATION MEAN,"CORNES, Rx eye, 2 HR, EXAMPLE 2",478 ng Cromolyn/g or ml Tissue
same,TISSUE CONCENTRATION MEAN,"CORNES, Rx eye, 2 HR, EXAMPLE 3",683 ng Cromolyn/g or ml Tissue
same,TISSUE CONCENTRATION WEIGHTED MEAN,"CORNES, Rx eye, 2 HR",519 ng Cromolyn/g or ml Tissue
same,TISSUE CONCENTRATION MEAN,"CORNES, Rx eye, 4 HR, EXAMPLE 1",487 ng Cromolyn/g or ml Tissue
same,TISSUE CONCENTRATION MEAN,"CORNES, Rx eye, 4 HR, EXAMPLE 2",298 ng Cromolyn/g or ml Tissue
same,TISSUE CONCENTRATION MEAN,"CORNES, Rx eye, 4 HR, EXAMPLE 3",381 ng Cromolyn/g or ml Tissue
same,TISSUE CONCENTRATION WEIGHTED MEAN,"CORNES, Rx eye, 4 HR",337 ng Cromolyn/g or ml Tissue
same,TISSUE CONCENTRATION MEAN,"CORNES, Rx eye, 8 HR, EXAMPLE 1",160 ng Cromolyn/g or ml Tissue
same,TISSUE CONCENTRATION MEAN,"CORNES, Rx eye, 8 HR, EXAMPLE 2",165 ng Cromolyn/g or ml Tissue
same,TISSUE CONCENTRATION MEAN,"CORNES, Rx eye, 8 HR, EXAMPLE 3",127 ng Cromolyn/g or ml Tissue
same,TISSUE CONCENTRATION WEIGHTED MEAN,"CORNES, Rx eye, 8 HR",162 ng Cromolyn/g or ml Tissue
same,TISSUE CONCENTRATION MEAN,"IRIS-CILIARY BODY, Rx eye, 2 HR, EXAMPLE 3",56 ng Cromolyn/g or ml Tissue
same,TISSUE CONCENTRATION MEAN,"IRIS-CILIARY BODY, Rx eye, 4 HR, EXAMPLE 3",29 ng Cromolyn/g or ml Tissue
same,TISSUE CONCENTRATION MEAN,"NICTITATING MEMBRANE, Rx eye, 2 HR, EXAMPLE 1",2136 ng Cromolyn/g or ml Tissue
same,TISSUE CONCENTRATION MEAN,"NICTITATING MEMBRANE, Rx eye, 2 HR, EXAMPLE 2",2438 ng Cromolyn/g or ml Tissue
same,TISSUE CONCENTRATION MEAN,"NICTITATING MEMBRANE, Rx eye, 2 HR, EXAMPLE 3",2618 ng Cromolyn/g or ml Tissue
same,TISSUE CONCENTRATION WEIGHTED MEAN,"NICTITATING MEMBRANE, Rx eye, 2 HR",2319 ng Cromolyn/g or ml Tissue
same,TISSUE CONCENTRATION MEAN,"NICTITATING MEMBRANE, Rx eye, 4 HR, EXAMPLE 1",480 ng Cromolyn/g or ml Tissue
same,TISSUE CONCENTRATION MEAN,"NICTITATING MEMBRANE, Rx eye, 4 HR, EXAMPLE 2",484 ng Cromolyn/g or ml Tissue
same,TISSUE CONCENTRATION MEAN,"NICTITATING MEMBRANE, Rx eye, 4 HR, EXAMPLE 3",576 ng Cromolyn/g or ml Tissue
same,TISSUE CONCENTRATION WEIGHTED MEAN,"NICTITATING MEMBRANE, Rx eye, 4 HR",494 ng Cromolyn/g or ml Tissue
same,TISSUE CONCENTRATION MEAN,"NICTITATING MEMBRANE, Rx eye, 8 HR, EXAMPLE 1",348 ng Cromolyn/g or ml Tissue
same,TISSUE CONCENTRATION MEAN,"NICTITATING MEMBRANE, Rx eye, 8 HR, EXAMPLE 2",350 ng Cromolyn/g or ml Tissue
same,TISSUE CONCENTRATION MEAN,"NICTITATING MEMBRANE, Rx eye, 8 HR, EXAMPLE 3",462 ng Cromolyn/g or ml Tissue
same,TISSUE CONCENTRATION WEIGHTED MEAN,"NICTITATING MEMBRANE, Rx eye, 8 HR",383 ng Cromolyn/g or ml Tissue
same,TISSUE CONCENTRATION MEAN,"PLASMA, 2 HR, EXAMPLE 3",1 ng Cromolyn/g or ml Tissue
same,Cromolyn levels in the aqueous humor of the untreated eye,"any time point (2, 4, 8 hours), Example 1 results text",no detectable
